Laboratory results taken from ChEMBL document CHEMBL3885861, “Open TG-GATES”.

Species: Rattus norvegicus
Experiment: Open TG-GATES - Regimen: Daily Repeat
Assay type: toxicity, organism-based, Sprague-Dawley
Set-up: regimen Daily Repeat, gender Male, age 6 weeks
Settings: in vivo, po, 0 mg/kg, route gavage, dose level Control; for APTT / Bas / Eos / Fbg / Hb / Ht / Lym / MCH / MCHC / MCV / Mono / Neu / PT / Plat / RBC / Ret / WBC: tissue Blood
[1] = 72 h, tissue Kidney, time 3 day
[2] = 72 h, tissue Plasma, time 3 day

COc1ccc(O)c(C(C)(C)C)c1.COc1ccc(O)cc1C(C)(C)C [BUTYLATED HYDROXYANISOLE]
TERMINAL_BW (72 h, time 3 day): 225.6 g | APTT (72 h, time 3 day): 15.7 s | Bas (72 h, time 3 day): 0.2% | Eos (72 h, time 3 day): 0.8% | Fbg (72 h, time 3 day): 265.6 mg/dL | Hb (72 h, time 3 day): 12.9 g/dL | Ht (72 h, time 3 day): 38% | Lym (72 h, time 3 day): 71.6% | MCH (72 h, time 3 day): 20.9 pg | MCHC (72 h, time 3 day): 34% | MCV (72 h, time 3 day): 61.5 fL | Mono (72 h, time 3 day): 2.4% | Neu (72 h, time 3 day): 24.3% | PT (72 h, time 3 day): 11.5 s | Plat (72 h, time 3 day): 140.6 x10_4/uL | RBC (72 h, time 3 day): 619 x10_4/ul | Ret (72 h, time 3 day): 6.6% | WBC (72 h, time 3 day): 90.7 x10_2/uL | KIDNEY_L [1]: 0.9 g | KIDNEY_R [1]: 0.9 g | KIDNEY_TOTAL [1]: 1.9 g | LIVER (72 h, tissue Liver, time 3 day): 10.1 g | A/G [2]: 0.8 | ALP [2]: 1690.8 IU/L | ALT [2]: 37.2 IU/L | AST [2]: 66.4 IU/L | BUN [2]: 12.8 mg/dL | CRE [2]: 0.2 mg/dL | Ca [2]: 11.2 mg/dL | Cl [2]: 106 meq/L | DBIL [2]: 0.02 mg/dL | GLC [2]: 178.4 mg/dL | IP [2]: 7.3 mg/dL | K [2]: 4 meq/L | LDH [2]: 60.4 IU/L | Na [2]: 143 meq/L | PL [2]: 136.2 mg/dL | RALB [2]: 2.6 g/dL | TBIL [2]: 0.064 mg/dL | TC [2]: 76.8 mg/dL | TG [2]: 69.4 mg/dL | TP [2]: 5.8 g/dL | gamma-GTP [2]: 1 IU/L | TERMINAL_BW ([…], time 7 day): 252.9 g | TERMINAL_BW ([…], time 14 day): 320.1 g | TERMINAL_BW ([…], time 28 day): 409.6 g | APTT ([…], time 7 day): 19 s | Bas ([…], time 7 day): 0.3% | Eos ([…], time 7 day): 0.8% | Fbg ([…], time 7 day): 288.2 mg/dL | Hb ([…], time 7 day): 13.5 g/dL | Ht ([…], time 7 day): 38.9% | Lym ([…], time 7 day): 76.5% | MCH ([…], time 7 day): 20.8 pg | MCHC ([…], time 7 day): 34.7% | MCV ([…], time 7 day): 60.1 fL | Mono ([…], time 7 day): 2.5% | Neu ([…], time 7 day): 19.2% | PT ([…], time 7 day): 12.2 s | Plat ([…], time 7 day): 135.8 x10_4/uL | RBC ([…], time 7 day): 647.4 x10_4/ul | Ret ([…], time 7 day): 5.1% | WBC ([…], time 7 day): 94.6 x10_2/uL | APTT ([…], time 14 day): 16.9 s | Bas ([…], time 14 day): 0.3% | Eos ([…], time 14 day): 0.6% | Fbg ([…], time 14 day): 269.2 mg/dL | Hb ([…], time 14 day): 13.9 g/dL | Ht ([…], time 14 day): 40.5% | Lym ([…], time 14 day): 78.2% | MCH ([…], time 14 day): 19.9 pg | MCHC ([…], time 14 day): 34.4% | MCV ([…], time 14 day): 57.8 fL | Mono ([…], time 14 day): 1.9% | Neu ([…], time 14 day): 18.2% | PT ([…], time 14 day): 12.2 s | Plat ([…], time 14 day): 143.4 x10_4/uL | RBC ([…], time 14 day): 700.6 x10_4/ul | Ret ([…], time 14 day): 3.6% | WBC ([…], time 14 day): 111.3 x10_2/uL | APTT ([…], time 28 day): 17.9 s | Bas ([…], time 28 day): 0.4% | Eos ([…], time 28 day): 0.9% | Fbg ([…], time 28 day): 262.8 mg/dL | Hb ([…], time 28 day): 15 g/dL | Ht ([…], time 28 day): 41.8%
